Test results: patent US20130310256A1, “HERBICIDAL COMPOSITIONS COMPRISING 4-AMINO-3-CHLORO-5-FLUORO-6-(4-CHLORO-2-FLUORO-3-METHOXYPHENYL) PYRIDINE-2-CARBOXYLIC ACID OR A DERIVATIVE THEREOF AND VLCFA AND LIPID SYNTHESIS INHIBITING HERBICIDES” (DOW AGROSCIENCES LLC, priority 2008, published 2013)

Legend:
[1] = test system: LEFCH; test: Example II: in-water applied weed control, transplanted paddy rice, greenhouse; type: in vivo, Leptochloa chinensis (L.) Nees (Chinese sprangletop)
Experimental: Weed seeds or nutlets of the desired test plant species were planted in puddled soil (mud) prepared by mixing a shredded, non-sterilized mineral soil (50.5 percent silt, 25.5 percent clay, and 24 percent sand, with a pH of about 7.6 and an organic matter content of about 2.9 percent) and water at a 1:1 volumetric ratio. The prepared mud was dispensed in 365 mL aliquots into 16-ounce (oz.) non-perforated plastic pots with a surface area of 86.59 square centimeters (cm^2) leaving a headspace of 3 centimeters (cm) in each pot. Mud was allowed to dry overnight prior to planting or transplanting. Rice seeds were planted in Sun Gro MetroMix® 306 planting mixture, which typically has a pH of 6.0 to 6.8 and an organic matter content of about 30 percent, in plastic plug trays. Seedlings at the second or third leaf stage of growth were transplanted into 840 mL of mud contained in 32-oz. non-perforated plastic pots with a surface area of 86.59 cm^2 4 days prior to herbicide application. The paddy was created by filling the headspace of the pots with 2.5 to 3 cm of water. When required to ensure good germination and healthy plants, a fungicide treatment and/or other chemical or physical treatment was applied. The plants were grown for 4-22 days in a greenhouse with an approximate 14 hr photoperiod which was maintained at about 29′C during the day and 26° C. during the night. Nutrients were added as Osmocote® (19:6:12, N:P:K+ minor nutrients) at 2 g per 16-oz. pot and 4 g per 32-oz. pot. Water was added on a regular basis to maintain the paddy flood, and supplemental lighting was provided with overhead metal halide 1000-Watt lamps as necessary. The plants were employed for testing when they reached the first through fourth true leaf stage.
(§1) Treatments consisted of the acid or esters of 4-amino-3-chloro-5-fluoro-6-(4-chloro-2-fluoro-3-methoxy-phenyl)pyridine-2-carboxylic acid (compound A) each formulated as an SC (suspension concentrate) and various herbicidal components alone and in combination. Forms of compound A were applied on an acid equivalent basis.
The herbicidal components were applied on an active ingredient basis and included very long chain fatty acid (VLCFA) synthesis-inhibiting and fatty acid/lipid synthesis-inhibiting herbicides acetochlor (technical grade material), acetochlor+dichlormid formulateded as Topnotch®, pretilachlor (technical grade material), butachlor formulated as Butachlor EC, fentrazamide formulated as Fentrazamide EC, thiobencarb formulated as Bolero® 8EC, cafenstrole formulated as Himeadow® WP or Lapost® Flowable, benfuresate formulated as Full Shot®, anilofos (technical grade material), mefenacet (technical grade material), molinate (technical grade material), and thenylchlor (technical grade material).
Treatment requirements for each compound or herbicidal component were calculated based upon the rates being tested, the concentration of active ingredient or acid equivalent in the formulation, an application volume of 2 mL per component per pot, and an application area of 86.59 cm^2 per pot.
For formulated compounds, a measured amount was placed in an individual 100 or 200 mL glass vial and was dissolved in a volume of 1.25% (v/v) Agri-Dex® crop oil concentrate to obtain application solutions.
For technical grade compounds, a weighed amount was placed in an individual 100 to 200 mL glass vial and was dissolved in a volume of acetone to obtain concentrated stock solutions. […] The concentrated stock solutions obtained were diluted with an equivalent volume of an aqueous mixture containing 2.5% (v/v) crop oil concentrate so that the final application solutions contained 1.25% (v/v) crop oil concentrate.
Applications were made by injecting with a pipetter appropriate amounts of the application solutions, individually and sequentially, into the aqueous layer of the paddy. Control plants were treated in the same manner with the solvent blank. […]

[2] = test system: IPOHE; test: Example I: postemergence foliar-applied weed control, greenhouse; type: in vivo, Ipomoea hederacea Jacq. (ivyleaf morningglory); conditions: for Visual Weed Control Obs: 20 DAA; for Visual Weed Control (%) - 21 DAA IPOHE Obs: foliar
Text: Seeds or nutlets of the desired test plant species were planted in a soil matrix prepared by mixing a loam or sandy loam soil (e.g., 28.6 percent silt, 18.8 percent clay, and 52.6 percent sand, with a pH of about 5.8 and an organic matter content of about 1.8 percent) and calcareous grit in an 80 to 20 ratio. The soil matrix was contained in plastic pots with a volume of 1 quart and a surface area of 83.6 square centimeters (cm^2). When required to ensure good germination and healthy plants, a fungicide treatment and/or other chemical or physical treatment was applied. The plants were grown for 8-22 days in a greenhouse with an approximate 14 hr photoperiod which was maintained at about 29° C. during the day and 26° C. during the night. Nutrients (Peters Excel® 15-5-15 5-Ca 2-Mg and iron chelate) were applied in the irrigation solution as needed and water was added on a regular basis. Supplemental lighting was provided with overhead metal halide 1000-Watt lamps as necessary. The plants were employed for testing when they reached the first through fourth true leaf stage.
as §1, with “(Compound A),” for “(compound A)”, “concentrate),” for “concentrate)”
Other herbicidal components were applied on an active ingredient basis and included very long chain fatty acid (VLCFA) synthesis-inhibiting and fatty acid/lipid synthesis-inhibiting herbicides acetochlor (technical grade material), acetochlor+dichlormid formulated as Topnotch®, pretilachlor (technical grade material), butachlor formulated as Butachlor EC, fentrazamide formulated as Fentrazamide EC, thiobencarb formulated as Bolero® 8EC, cafenstrole formulated as Himeadow® WP or Lapost® Flowable, benfuresate formulated as Full Shot®, dimethenamid-P formulated as Outlook®, indanofan (technical grade material), flufenacet formulated as Define® DF, mefenacet (technical grade material), S-metolachlor formulated as Dual® II Magnum, pethoxamid formulated as Successor® 600, and pyroxasulfone (technical grade material).
Treatment requirements were calculated based upon the rates being tested, the concentration of active ingredient or acid equivalent in the formulation, and a 12 mL application volume at a rate of 187 L/ha.
For treatments comprised of formulated compounds, measured amounts of compounds were placed individually in 25 mL glass vials and diluted in a volume of 1.25% (v/v) Agri-Dex® crop oil concentrated to obtain 12× stock solutions. […] Application solutions were prepared by adding an appropriate amount of each stock solution (e.g., 1 mL) and diluted to the appropriate final concentrations with the addition of 10 mL of an aqueous mixture of 1.25% (v/v) crop oil concentrate so that the final spray solutions contained 1.25+/−0.05% (v/v) crop oil concentrate.
For treatments comprised of technical compounds, weighed amounts can be placed individually in 25 mL glass vials and dissolved in a volume of 97:3 v/v acetone/DMSO to obtain 12× stock solutions. […] Application solutions can be prepared by adding an appropriate amount of each stock solution (e.g., 1 mL) and diluted to the appropriate final concentrations with the addition of 10 mL of an aqueous mixture of 1.5% (v/v) crop oil concentrate so that the final spray solutions contain 1.25% (v/v) crop oil concentrate. When technical materials are used, the concentrated stock solutions can be added to the spray solutions so that the final acetone and DMSO concentrations of the application solutions are […], respectively. […]

SMILES: CCS(=O)(=O)Oc1ccc2c(c1)C(C)(C)CO2 [Benfuresate, 2,3-dihydro-3,3-dimethyl-5-benzofuranyl ethanesulfonate]
- Visual Weed Control LEFCH Obs ([1]; 75 gai/ha (Full Slot), 22 DAA): 0%
- Visual Weed Control LEFCH Obs ([1]; 150 gai/ha (Full Slot), 22 DAA): 0%

SMILES: CCN(CC)C(=O)n1cnc(S(=O)(=O)c2c(C)cc(C)cc2C)n1 [Cafenstrole, N,N-diethyl-3-[(2,4,6-trimethylphenyl)sulfonyl]-1H-1,2,4-triazole-1-carboxamide]
- Visual Weed Control Obs ([2]; 26.25 gai/ha Himeadow WP): 0%
- Visual Weed Control Obs ([2]; 105 gai/ha Himeadow WP): 30%
- Visual Weed Control (%) - 21 DAA IPOHE Obs ([2]; 26.25 gai/ha): 0%
- Visual Weed Control (%) - 21 DAA IPOHE Obs ([2]; 210 gai/ha, 2nd IPOHE sub-table): 10%
- Visual Weed Control LEFCH Obs ([1]; 210 gai/ha (Lapost Flowable), 21 DAA): 38%

SMILES: COc1c(Cl)ccc(-c2nc(C(=O)O)c(Cl)c(N)c2F)c1F [Compound A Acid, 4-amino-3-chloro-6-(4-chloro-2-fluoro-3-methoxyphenyl)-5-fluoropyridine-2-carboxylic acid]
- Visual Weed Control Obs ([2]; 4.38 gae/ha): 0%
- Visual Weed Control Obs ([2]; 8.75 gae/ha): 20%
- Visual Weed Control Obs ([2]; 17.5 gae/ha): 40%
- Visual Weed Control LEFCH Obs ([1]; 10.6 gae/ha, 22 DAA): 20%
- Visual Weed Control LEFCH Obs ([1]; 21.2 gae/ha, 22 DAA): 40%
- Visual Weed Control LEFCH Obs ([1]; 35 gae/ha, 21 DAA): 5%
- Visual Weed Control LEFCH Obs ([1]; 42.4 gae/ha, 22 DAA): 60%
- Visual Weed Control LEFCH Obs ([1]; 70 gae/ha, 21 DAA): 23%

SMILES: COc1c(Cl)ccc(-c2nc(C(=O)OCc3ccccc3)c(Cl)c(N)c2F)c1F [Compound A Benzyl Ester, benzyl ester of 4-amino-3-chloro-5-fluoro-6-(4-chloro-2-fluoro-3-methoxy-phenyl)pyridine-2-carboxylic acid]
- Visual Weed Control (%) - 21 DAA IPOHE Obs ([2]; 4.38 gae/ha): 0%
- Visual Weed Control (%) - 21 DAA IPOHE Obs ([2]; 8.75 gae/ha): 10%
- Visual Weed Control (%) - 21 DAA IPOHE Obs ([2]; 17.5 gae/ha): 30%
- Visual Weed Control (%) - 21 DAA IPOHE Obs ([2]; 17.5 gae/ha, 2nd IPOHE sub-table): 10%
- Visual Weed Control Obs ([2]; 4.38 gae/ha): 10%
- Visual Weed Control Obs ([2]; 8.75 gae/ha): 15%
- Visual Weed Control Obs ([2]; 17.5 gae/ha): 25%
- Visual Weed Control LEFCH Obs ([1]; 4.38 gae/ha, 22 DAA): 20%
- Visual Weed Control LEFCH Obs ([1]; 8 gae/ha, 19 DAA): 0%
- Visual Weed Control LEFCH Obs ([1]; 16 gae/ha, 19 DAA): 0%
- Visual Weed Control LEFCH Obs ([1]; 32 gae/ha, 19 DAA): 15%
- Visual Weed Control LEFCH Obs ([1]; 35 gae/ha, 21 DAA): 50%
- Visual Weed Control LEFCH Obs ([1]; 70 gae/ha, 21 DAA): 50%
